Measurements published in patent publication US4251658A, “3-(1-Pyrazolyl)-pyridazine derivatives” (Richter Gedeon Vegyeszeti Gyar Rt., priority 1977, dated 1981).

Columns and labels:
[1] = target: prostaglandin-A isomerase (PGAI); test: Prostaglandin-A isomerase (PGAI) inhibiting action, PGAI preparation from the blood-plasma of pigs; assay type: biochemical; settings: read-out: I50% inhibiting levels in final concentrations, PGAI
Source text: (§1) The I50%, i.e. the index of inhibition is defined as the concentration of the substance inhibiting to 50% the function of the corresponding enzyme.

[2] = Hypotensive action in narcotized cats; assay type: in vivo; settings: pentobarbital narcosis
Procedure: The substances were administered in doses of 5, 2.5 and 1 mg./kg., respectively, and Hydralazine (1-hydrazinophthalazine hydrochloride) was used as reference compound.

[3] = in vivo; settings: mouse, mice, oral, read-out: Acute oral toxicity on mice LD50
[4] = Systolic blood pressure in the caudal artery of spontaneously hypertensive (Wistar-Okamoto) rats, oral treatment; assay type: in vivo; settings: for decrease in systolic blood pressure: oral
[5] = target: T1, prostaglandin dehydrogenase (PGDH) (Sus scrofa, UniProt A0ACM8QJV0); test: Prostaglandin dehydrogenase (PGDH) inhibiting action, PGDH preparation from pig-lung; assay type: biochemical; settings: read-out: I50% inhibiting levels in final concentrations, PGDH
T1 construct: PGDH preparation from pig-lung; from tissue; host or cells: pig lung
T1 sequence (A0ACM8QJV0 1-266): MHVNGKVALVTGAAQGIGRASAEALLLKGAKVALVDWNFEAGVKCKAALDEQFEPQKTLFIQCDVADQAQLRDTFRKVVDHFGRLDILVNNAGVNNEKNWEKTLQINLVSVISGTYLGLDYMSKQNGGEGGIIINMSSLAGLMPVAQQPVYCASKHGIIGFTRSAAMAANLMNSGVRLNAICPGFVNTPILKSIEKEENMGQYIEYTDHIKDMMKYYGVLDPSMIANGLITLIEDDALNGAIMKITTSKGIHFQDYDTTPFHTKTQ
Source text: as §1

SMILES | IC50 [1] [µM] | Decrease in blood pressure in Hgmm by 1 mg./kg. [2] [Hgmm] | LD50 [3] [mg/kg] | also measured
CCOC(=O)c1cnn(-c2ccc(NC3CCCCC3)nn2)c1N [Example 5, 3-Cyclohexylamino-A] | 100 | – | – | –
CCOC(=O)c1cnn(-c2ccc(NCc3ccccc3)nn2)c1N [Example 7, 3-Benzylamino-A] | – | -15 | 1000 | –
COc1ccc(CCNc2ccc(-n3ncc(C(=O)NN)c3N)nn2)cc1OC [Example 33, 3-(3,4-Dimethoxyphenylethyl-amino)-B] | – | -10 | ~150 | –
NNC(=O)c1cnn(-c2ccc(N(CCO)CCO)nn2)c1N [Example 31, 3-[bis(2-Hydroxyethyl)-amino]-6-(4-carbazoyl-5-amino-1-pyrazolyl)-pyridazin] | – | -10 | 250 | –
NNC(=O)c1cnn(-c2cccnn2)c1N [Example 32] | – | -10 | 200 | –
Cl.NNc1nncc2ccccc12 [Hydralazine, 1-hydrazinophthalazine hydrochloride, reference compound] | 90 | -40 | – | decrease in systolic blood pressure ([4]; 10 mg./kg. (reference), after 2 hours): 21%; decrease in systolic blood pressure ([4]; 10 mg./kg. (reference), after 5 hours): 22%; decrease in systolic blood pressure ([4]; 10 mg./kg. (reference), after 24 hours): 15%
CCOC(=O)c1cnn(-c2ccc(NCCN(CC)CC)nn2)c1N [Example 11, 3-(2-Diethylaminoethylamino)-A] | 44 | – | – | –
CCOC(=O)c1cnn(-c2ccc(NCc3cccnc3)nn2)c1N [Example 17, 3-(3-Pyrdiylmethylamino)-A] | 25 | – | – | IC50 [5]: 200 µM
CCOC(=O)c1cnn(-c2ccc(NC(C)c3ccccc3)nn2)c1N (centres unmarked) [Example 20, 3-(1-Phenylethylamino)-A] | 180 | – | – | –
CCOC(=O)c1cnn(-c2ccc(NCc3ccccn3)nn2)c1N [Example 16, 3-(2Pyridylmethylamino)-A] | 75 | – | – | IC50 [5]: 150 µM
CCOC(=O)c1cnn(-c2ccc(NCc3ccncc3)nn2)c1N [Example 18, 3-(4-Pyridylmethylamino)-A] | 36 | – | – | –
CN(N)c1ccc(-n2ncc(C#N)c2N)nn1 [Example 30, 3-(1-methylhydrazino)-6-(4-cyano-5-amino-1-pyrazolyl)-pyridazine] | – | -40 | 200 | tachycardia ([4]; against Hydralazine): does not cause any significant tachycardia; decrease in systolic blood pressure ([4]; 20 mg./kg., after 2 hours): 31%; decrease in systolic blood pressure ([4]; 20 mg./kg., after 5 hours): 16%; decrease in systolic blood pressure ([4]; 20 mg./kg., after 24 hours): 15%
CCOC(=O)c1cnn(-c2ccc(NCc3ccco3)nn2)c1N [Example 6, 3-Furfurylamino-A] | 50 | – | – | IC50 [5]: 55 µM
